From patent US20100190846A1, “MICROBICIDAL AGENT AND MICROBICIDAL COMPOSITION” (priority 2006, published 2010)
Values after ≈ are worked out from the molar mass of the structure shown.

What was measured:
Experiment in all cases: Agar dilution method microbicidal test
Assay type in all cases: cell-based
Bacillus cereus = test system: Bacillus cereus; further: key: +: grew; −: did not grow
Protocol: (§1) As microbicidal test method for trans-p-coumaric acid, 3-hydroxypyridine, p-hydroxybenzaldehyde and vanillin, the agar dilution method was employed.
(§2) In agar dilution method, a solution in which a sample is dissolved is serially diluted several times, and each of the diluted sample solutions is mixed with agar medium to prepare plate agars having various sample concentration. Then bacteria is inoculated onto the plate agars. In cases where the sample has a microbicidal activity, the growth of the bacteria on the plates can be inhibited. The lowest concentration which can inhibit the growth of the bacteria is referred to as Minimum Inhibitory Concentration (MIC), thereby judging the degree of a microbicidal activity of the sample.
(§3) First, 400 mg of sample was dissolved in 1 mL of DMSO to prepare 400 mg/mL sample solution. Then 0.5 mL of this 400 mg/mL sample solution was diluted 2-fold to prepare 200 mg/mL sample solution. In the same manner, sample solutions of 100 mg/mL, 50.0 mg/mL, and 25.0 mg/mL were prepared. In addition, 300 mg/mL sample solution was prepared. Thereafter, 0.2 mL of these sample solutions each was mixed with 19.8 mL of BHI (Brain Heart Infusion Agar, Becton Dickinson, MD) medium, thereby preparing agar plates having the sample concentration of 4.0 mg/mL, 3.0 mg/mL, 2.0 mg/mL, 1.0 mg/mL, 0.5 mg/mL, and 0.25 mg/mL in dishes. […] Sterilized water was used for dissolving catechin, because catechin was insoluble in DMSO.
(§4) As test bacteria, 13 kinds of bacteria, i.e., Streptococcus pneumoniae, Streptococcus pyogenes, Enterococcus faecalis, Staphylococcus aureus, Escherichia coli, Salmonella sp., Yersinia enterocolitica, Vibrio parahaemolyticus, Pseudomonas aeruginosa, Bacillus cereus, Bacillus subtilis MB-32, Bacillus subtilis ATCC6633, and Candida sp., were used. These bacteria each was mixed with 2 mL of sterilized MHB^R liquid medium (Mueller Hinton Broth^R, Becton Dickinson, MD) to prepare bacterial suspension having turbidity 1 (bacterial concentration 10^8/mL). Previously, small test tubes were set into each cell of a grating and sterilized, and 1 mL of 13 bacterial suspensions were added into the small test tubes set in the grating, respectively. By using a microplanter (SAKUMA, model: MIT-P), 10 μL aliquot was collected from each test tube set in the grating and transferred to other test tube, and the transferred bacterial suspensions were diluted 100-fold (bacterial concentration 10^6/mL).
(§5) By using the microplanter, 10 μL (bacterial number […]) of this bacterial suspension was inoculated onto the plates containing the sample solution of various concentrations. The plates were incubated for 18 hours in an incubator at 37° C., and then a microbicidal activity of each compound was assessed.

[1] = test system: Bacillus subtilis ATCC6633; settings: Bacillus subtilis ATCC 6633; further: key: +: grew; −: did not grow
Protocol: as §1, §2, §3, §4, §5

Bacillus subtilis MB-32 = test system: Bacillus subtilis MB-32; further: key: +: grew; −: did not grow
Protocol: as §1, §2, §3, §4, §5

Candida sp. = test system: Candida sp. On Growth on agar plate: key: +: grew; −: did not grow.
Protocol: as §1, §2, §3, §4, §5

Enterococcus faecalis = test system: Enterococcus faecalis; further: key: +: grew; −: did not grow
Protocol: as §1, §2, §3, §4, §5

Escherichia coli = test system: Escherichia coli; further: key: +: grew; −: did not grow
Protocol: as §1, §2, §3, §4, §5

Pseudomonas aeruginosa = test system: Pseudomonas aeruginosa; on Growth on agar plate: key: +: grew; −: did not grow
Protocol: as §1, §2, §3, §4, §5

Salmonella sp. = test system: Salmonella sp. Further: key: +: grew; −: did not grow.
Protocol: as §1, §2, §3, §4, §5

Staphylococcus aureus = test system: Staphylococcus aureus; on Growth on agar plate: key: +: grew; −: did not grow
Protocol: as §1, §2, §3, §4, §5

Streptococcus pneumoniae = test system: Streptococcus pneumoniae; on Growth on agar plate: key: +: grew; −: did not grow
Protocol: as §1, §2, §3, §4, §5

Streptococcus pyogenes = test system: Streptococcus pyogenes; on Growth on agar plate: key: +: grew; −: did not grow
Protocol: as §1, §2, §3, §4, §5

Vibrio parahaemolyticus = test system: Vibrio parahaemolyticus; on Growth on agar plate: key: +: grew; −: did not grow
Protocol: as §1, §2, §3, §4, §5

Yersinia enterocolitica = test system: Yersinia enterocolitica; on Growth on agar plate: key: +: grew; −: did not grow
Protocol: as §1, §2, §3, §4, §5

[2] = BHI agar, 37° C., 18 hours, read-out: MIC

In the case of `Oc1cccnc1` [3-Hydroxypyridine, 3-hydroxypyridine], the “Growth on agar plate” value (Bacillus cereus; 0.25 mg/mL) is reported as “+”, the “Growth on agar plate” value (Bacillus cereus; 0.5 mg/mL) is reported as “+” and the “Growth on agar plate” value (Bacillus cereus; 1.0 mg/mL) is reported as “+”. For the same compound, the “Growth on agar plate” value (Bacillus cereus; 2.0 mg/mL) was “+”, the “Growth on agar plate” value (Bacillus cereus; 3.0 mg/mL) was “+” and the “Growth on agar plate” value (Bacillus cereus; 4.0 mg/mL) was “+”. The “Growth on agar plate” value ([1]; 0.25 mg/mL) was “+”, the “Growth on agar plate” value ([1]; 0.5 mg/mL) was “+” and the “Growth on agar plate” value ([1]; 1.0 mg/mL) was “+”. For the same compound, the “Growth on agar plate” value ([1]; 2.0 mg/mL) was “+”, the “Growth on agar plate” value ([1]; 3.0 mg/mL) was “+” and the “Growth on agar plate” value ([1]; 4.0 mg/mL) was “+”. For the same compound, the “Growth on agar plate” value (Bacillus subtilis MB-32; 0.25 mg/mL) was “+”, the “Growth on agar plate” value (Bacillus subtilis MB-32; 0.5 mg/mL) was “+” and the “Growth on agar plate” value (Bacillus subtilis MB-32; 1.0 mg/mL) was “+”. The “Growth on agar plate” value (Bacillus subtilis MB-32; 2.0 mg/mL) was “+”, the “Growth on agar plate” value (Bacillus subtilis MB-32; 3.0 mg/mL) was “+” and the “Growth on agar plate” value (Bacillus subtilis MB-32; 4.0 mg/mL) was “+”. The “activity (in words)” value (Candida sp.) was “had an activity”, the “Growth on agar plate” value (Candida sp.; 0.25 mg/mL) was “+” and the “Growth on agar plate” value (Candida sp.; 0.5 mg/mL) was “+”. The “Growth on agar plate” value (Candida sp.; 1.0 mg/mL) was “+”, the “Growth on agar plate” value (Candida sp.; 2.0 mg/mL) was “+” and the “Growth on agar plate” value (Candida sp.; 3.0 mg/mL) was “+”. For the same compound, the “Growth on agar plate” value (Candida sp.; 4.0 mg/mL) was “−”, the MIC (Candida sp.; [2]) was 4000 µg/mL (≈ 42.1 mM) and the “Growth on agar plate” value (Enterococcus faecalis; 0.25 mg/mL) was “+”. The “Growth on agar plate” value (Enterococcus faecalis; 0.5 mg/mL) was “+”, the “Growth on agar plate” value (Enterococcus faecalis; 1.0 mg/mL) was “+” and the “Growth on agar plate” value (Enterococcus faecalis; 2.0 mg/mL) was “+”. The “Growth on agar plate” value (Enterococcus faecalis; 3.0 mg/mL) was “+”, the “Growth on agar plate” value (Enterococcus faecalis; 4.0 mg/mL) was “+” and the “Growth on agar plate” value (Escherichia coli; 0.25 mg/mL) was “+”. The “Growth on agar plate” value (Escherichia coli; 0.5 mg/mL) was “+”, the “Growth on agar plate” value (Escherichia coli; 1.0 mg/mL) was “+” and the “Growth on agar plate” value (Escherichia coli; 2.0 mg/mL) was “+”. For the same compound, the “Growth on agar plate” value (Escherichia coli; 3.0 mg/mL) was “+”, the “Growth on agar plate” value (Escherichia coli; 4.0 mg/mL) was “+” and the “activity (in words)” value (Pseudomonas aeruginosa) was “had an activity”. For the same compound, the “Growth on agar plate” value (Pseudomonas aeruginosa; 0.25 mg/mL) was “+”, the “Growth on agar plate” value (Pseudomonas aeruginosa; 0.5 mg/mL) was “+” and the “Growth on agar plate” value (Pseudomonas aeruginosa; 1.0 mg/mL) was “+”. For the same compound, the “Growth on agar plate” value (Pseudomonas aeruginosa; 2.0 mg/mL) was “+”, the “Growth on agar plate” value (Pseudomonas aeruginosa; 3.0 mg/mL) was “+” and the “Growth on agar plate” value (Pseudomonas aeruginosa; 4.0 mg/mL) was “−”. The MIC (Pseudomonas aeruginosa; [2]) was 4000 µg/mL (≈ 42.1 mM), the “Growth on agar plate” value (Salmonella sp.; 0.25 mg/mL) was “+” and the “Growth on agar plate” value (Salmonella sp.; 0.5 mg/mL) was “+”. For the same compound, the “Growth on agar plate” value (Salmonella sp.; 1.0 mg/mL) was “+”, the “Growth on agar plate” value (Salmonella sp.; 2.0 mg/mL) was “+” and the “Growth on agar plate” value (Salmonella sp.; 3.0 mg/mL) was “+”. For the same compound, the “Growth on agar plate” value (Salmonella sp.; 4.0 mg/mL) was “+”, the “activity (in words)” value (Staphylococcus aureus) was “had an activity” and the “Growth on agar plate” value (Staphylococcus aureus; 0.25 mg/mL) was “+”. The “Growth on agar plate” value (Staphylococcus aureus; 0.5 mg/mL) was “+”, the “Growth on agar plate” value (Staphylococcus aureus; 1.0 mg/mL) was “+” and the “Growth on agar plate” value (Staphylococcus aureus; 2.0 mg/mL) was “+”. The “Growth on agar plate” value (Staphylococcus aureus; 3.0 mg/mL) was “+”, the “Growth on agar plate” value (Staphylococcus aureus; 4.0 mg/mL) was “−” and the MIC (Staphylococcus aureus; [2]) was 4000 µg/mL (≈ 42.1 mM). For the same compound, the “activity (in words)” value (Streptococcus pneumoniae) was “had an activity”, the “Growth on agar plate” value (Streptococcus pneumoniae; 0.25 mg/mL) was “+” and the “Growth on agar plate” value (Streptococcus pneumoniae; 0.5 mg/mL) was “+”. For the same compound, the “Growth on agar plate” value (Streptococcus pneumoniae; 1.0 mg/mL) was “+”, the “Growth on agar plate” value (Streptococcus pneumoniae; 2.0 mg/mL) was “+” and the “Growth on agar plate” value (Streptococcus pneumoniae; 3.0 mg/mL) was “+”. The “Growth on agar plate” value (Streptococcus pneumoniae; 4.0 mg/mL) was “−”, the MIC (Streptococcus pneumoniae; [2]) was 4000 µg/mL (≈ 42.1 mM) and the “activity (in words)” value (Streptococcus pyogenes) was “had an activity”. For the same compound, the “Growth on agar plate” value (Streptococcus pyogenes; 0.25 mg/mL) was “+”, the “Growth on agar plate” value (Streptococcus pyogenes; 0.5 mg/mL) was “+” and the “Growth on agar plate” value (Streptococcus pyogenes; 1.0 mg/mL) was “+”. The “Growth on agar plate” value (Streptococcus pyogenes; 2.0 mg/mL) was “+”, the “Growth on agar plate” value (Streptococcus pyogenes; 3.0 mg/mL) was “+” and the “Growth on agar plate” value (Streptococcus pyogenes; 4.0 mg/mL) was “−”. The MIC (Streptococcus pyogenes; [2]) was 4000 µg/mL (≈ 42.1 mM), the “Growth on agar plate” value (Vibrio parahaemolyticus; 0.25 mg/mL) was “+” and the “Growth on agar plate” value (Vibrio parahaemolyticus; 0.5 mg/mL) was “+”. The “Growth on agar plate” value (Vibrio parahaemolyticus; 1.0 mg/mL) was “+”, the “Growth on agar plate” value (Vibrio parahaemolyticus; 2.0 mg/mL) was “+” and the “Growth on agar plate” value (Vibrio parahaemolyticus; 3.0 mg/mL) was “+”. For the same compound, the “Growth on agar plate” value (Vibrio parahaemolyticus; 4.0 mg/mL) was “−”, the MIC (Vibrio parahaemolyticus; [2]) was 4000 µg/mL (≈ 42.1 mM) and the “activity (in words)” value (Yersinia enterocolitica) was “had an activity”. For the same compound, the “Growth on agar plate” value (Yersinia enterocolitica; 0.25 mg/mL) was “+”, the “Growth on agar plate” value (Yersinia enterocolitica; 0.5 mg/mL) was “+” and the “Growth on agar plate” value (Yersinia enterocolitica; 1.0 mg/mL) was “+”. For the same compound, the “Growth on agar plate” value (Yersinia enterocolitica; 2.0 mg/mL) was “+”, the “Growth on agar plate” value (Yersinia enterocolitica; 3.0 mg/mL) was “+” and the “Growth on agar plate” value (Yersinia enterocolitica; 4.0 mg/mL) was “−”. It also gave an MIC (Yersinia enterocolitica; [2]) of 4000 µg/mL (≈ 42.1 mM).
